In US20090181898A1, “ABUSE-RESISTANT A[…]” (SHIRE LLC, priority 2002, published 2009):

How the values were obtained:
rats [1] = assay: Horizontal locomotor activity after oral administration; format: in vivo, Sprague-Dawley rats; conditions: for Peak of activity (Counts per 0.2 h) / Time of Last Count Above 200 per 0.2 h / Total Activity Counts / Total Activity Counts Above Baseline: rats, oral gavage 6 mg/kg
rats [2] = assay: Locomotor activity after intranasal administration with and without CMC; format: in vivo, Sprague-Dawley rats
Text: The CMC drug mixtures were suspended thoroughly before each dose was delivered.

rats [3] = assay: Locomotor activity after intravenous administration; format: in vivo, Sprague-Dawley rats; conditions: rat, 1.0 mg/kg
[4] = target: T1, human recombinant dopamine transport binding sites (DAT) (Homo sapiens, UniProt Q01959); assay: Radioligand binding assay, dopamine transporter (NovaScreen)
T1 construct: NovaScreen, Hanover, Md; (contract laboratory that ran the assay)

[5] = Intranasal bioavailability (LC/MS/MS); conditions: rat, in vivo, other: intranasal, 3 mg/kg
[6] = Oral bioavailability at escalating doses (LC/MS/MS); conditions: rat; for AUC(0-inf): in vivo, po; for F (fraction of intact L-lysine-d-amphetamine absorbed): oral
stimulant abusers = assay: Abuse liability of intravenous L-lysine-d-amphetamine in stimulant abusers; conditions: IV
anesthetized dog = assay: Cardiovascular effects following intravenous injection in the anesthetized dog
[7] = rats, intranasal 1.0 mg/kg, 1 h
[8] = L-lysine-d-amphetamine 50 mg, d-amphetamine 20 mg

T1 sequence (Q01959 whole entry): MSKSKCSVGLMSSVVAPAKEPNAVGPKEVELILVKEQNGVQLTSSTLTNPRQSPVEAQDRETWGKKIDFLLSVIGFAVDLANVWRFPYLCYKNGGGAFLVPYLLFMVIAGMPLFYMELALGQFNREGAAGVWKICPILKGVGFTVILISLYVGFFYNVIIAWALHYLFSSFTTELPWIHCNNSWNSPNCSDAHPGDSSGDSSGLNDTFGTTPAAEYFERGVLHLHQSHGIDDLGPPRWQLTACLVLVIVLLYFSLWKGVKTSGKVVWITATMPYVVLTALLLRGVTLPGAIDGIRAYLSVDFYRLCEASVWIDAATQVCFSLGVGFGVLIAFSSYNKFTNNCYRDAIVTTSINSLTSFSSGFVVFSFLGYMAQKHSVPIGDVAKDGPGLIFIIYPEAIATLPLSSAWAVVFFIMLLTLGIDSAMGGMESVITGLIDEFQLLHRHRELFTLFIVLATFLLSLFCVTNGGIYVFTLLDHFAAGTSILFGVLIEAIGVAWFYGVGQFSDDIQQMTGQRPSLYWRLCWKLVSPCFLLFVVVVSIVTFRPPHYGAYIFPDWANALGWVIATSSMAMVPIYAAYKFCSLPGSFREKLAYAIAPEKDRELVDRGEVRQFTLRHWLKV

## CC(Cc1ccccc1)NC(=O)C(N)CCCCN [L-lysine-d-amphetamine, 2,6-diaminohexanoic acid-(1-methyl-2-phenylethyl)-amide]
Rats [1]; rat, oral, 6 mg/kg, three experiments (5, 8, 12 h)
  Increase of total HLA activity counts over those induced by d-amphetamine: 11-41%
Rats [1]; 5 h experiment
  Peak of activity (Counts per 0.2 h): 318 Counts per 0.2 h
  Time of Last Count Above 200 per 0.2 h: 5 h
  Total Activity Counts: 6417
  Total Activity Counts Above Baseline: 5902
Rats [1]; 12 h experiment
  Peak of activity (Counts per 0.2 h): 256 Counts per 0.2 h
  Time of Last Count Above 200 per 0.2 h: 8.6 h
  Total Activity Counts: 8423
  Total Activity Counts Above Baseline: 7487
Rats [2]; rat, intranasal, 1.0 mg/kg
  Increase in activity over baseline compared to activity for d-amphetamine dosed animals: 34%
Rats [2]; [7]
  Percent Amp (activity above baseline relative to Amp): 35%
  Total Activity Counts (1 h): 408
  Total Activity Counts Above Baseline: 237
Rats [3]
  Total Activity Counts (3 h): 767
Rats [3]; 3 h
  Activity above baseline, Percent Amp: 34%
  Total Activity Counts Above Baseline: 463
[4]; 10^−5 mol/L
  inhibition at 10 µM: -0.71%
[4]; 10^−7 mol/L
  inhibition at 0.1 µM: 11.5%
[4]; 10^−9 mol/L
  inhibition at 0.001 µM: -10.5%
[4]; 10^−9 to 10^−5 M
  Specific binding to dopamine transport binding sites: did not bind
[4]; DA Transporter, radioligand [3H]-WIN35428, 10^−9 to 10^−5 M
  Activity: No (No activity is defined as producing between −20% and 20% inhibition of radioligand binding (Novascreen).)
[5]
  concentration at 0 h: 0 µg/mL
[6]; 3 mg/kg
  AUC(0-inf): 0.331 µg·h/mL
  F (fraction of intact L-lysine-d-amphetamine absorbed): 7.2%
[6]; 6 mg/kg
  AUC(0-inf): 1.18 µg·h/mL
  F (fraction of intact L-lysine-d-amphetamine absorbed): 12.8%
[6]; 12 mg/kg
  AUC(0-inf): 5.17 µg·h/mL
  F (fraction of intact L-lysine-d-amphetamine absorbed): 24.6%
[6]; 60 mg/kg
  AUC(0-inf): 8.46 µg·h/mL
  F (fraction of intact L-lysine-d-amphetamine absorbed): 9.3%
Stimulant abusers; 50 mg
  Euphoria or amphetamine-like subjective effects: did not produce euphoria or amphetamine-like subjective effects
Stimulant abusers; [8]
  Mean maximum response on Subject Liking VAS vs placebo: not greater than placebo
  Subjects (of 9) who would take the treatment again: one
Anesthetized dog; dog, IV, approximately 30 minutes after injection
  Increase in mean BP: 20-50%
Anesthetized dog; iv 0.5 mg/kg, Time 0
  DAP % Change: 0%
  DAP diastolic arterial pressure: 51 mmHg
  LVP % Change: 0%
  LVP left ventricular pressure: 86 mmHg
  MAP % Change: 0%
  MAP mean arterial pressure: 64 mmHg
  SAP % Change: 0%
  SAP systolic arterial pressure: 84 mmHg
Anesthetized dog; iv 0.5 mg/kg, Time 5
  DAP % Change: 3%
  DAP diastolic arterial pressure: 52 mmHg
  LVP % Change: 2%
  LVP left ventricular pressure: 87 mmHg
  MAP % Change: 3%
  MAP mean arterial pressure: 66 mmHg
  SAP % Change: 4%
  SAP systolic arterial pressure: 87 mmHg
Anesthetized dog; iv 0.5 mg/kg, Time 15
  DAP % Change: 1%
  DAP diastolic arterial pressure: 51 mmHg
  LVP % Change: 11%
  LVP left ventricular pressure: 95 mmHg
  MAP % Change: 5%
  MAP mean arterial pressure: 67 mmHg
  SAP % Change: 11%
  SAP systolic arterial pressure: 93 mmHg
Anesthetized dog; iv 0.5 mg/kg, Time 25
  DAP % Change: 8%
  DAP diastolic arterial pressure: 55 mmHg
  LVP % Change: 22%
  LVP left ventricular pressure: 105 mmHg
  MAP % Change: 15%
  MAP mean arterial pressure: 73 mmHg
  SAP % Change: 25%
  SAP systolic arterial pressure: 104 mmHg
Anesthetized dog; iv 0.5 mg/kg, Time 30
  DAP % Change: 14%
  DAP diastolic arterial pressure: 58 mmHg
  LVP % Change: 26%
  LVP left ventricular pressure: 108 mmHg
  MAP % Change: 21%
  MAP mean arterial pressure: 77 mmHg
  SAP % Change: 28%
  SAP systolic arterial pressure: 107 mmHg
Anesthetized dog; iv 1.0 mg/kg, Time 0
  DAP % Change: 0%
  DAP diastolic arterial pressure: 55 mmHg
  LVP % Change: 0%
  LVP left ventricular pressure: 108 mmHg
  MAP % Change: 0%
  MAP mean arterial pressure: 74 mmHg
  SAP % Change: 0%
  SAP systolic arterial pressure: 105 mmHg
Anesthetized dog; iv 1.0 mg/kg, Time 5
  DAP % Change: 15%
  DAP diastolic arterial pressure: 63 mmHg
  LVP % Change: 11%
  LVP left ventricular pressure: 120 mmHg
  MAP % Change: 15%
  MAP mean arterial pressure: 85 mmHg
  SAP % Change: 15%
  SAP systolic arterial pressure: 121 mmHg
Anesthetized dog; iv 1.0 mg/kg, Time 15
  DAP % Change: 33%
  DAP diastolic arterial pressure: 73 mmHg
  LVP % Change: 29%
  LVP left ventricular pressure: 140 mmHg
  MAP % Change: 35%
  MAP mean arterial pressure: 100 mmHg
  SAP % Change: 35%
  SAP systolic arterial pressure: 142 mmHg
Anesthetized dog; iv 1.0 mg/kg, Time 25
  DAP % Change: 75%
  DAP diastolic arterial pressure: 97 mmHg
  LVP % Change: 50%
  LVP left ventricular pressure: 162 mmHg
  MAP % Change: 68%
  MAP mean arterial pressure: 124 mmHg
  SAP % Change: 55%
  SAP systolic arterial pressure: 163 mmHg
Anesthetized dog; iv 1.0 mg/kg, Time 30
  DAP % Change: 32%
  DAP diastolic arterial pressure: 73 mmHg
  LVP % Change: 33%
  LVP left ventricular pressure: 144 mmHg
  MAP % Change: 32%
  MAP mean arterial pressure: 98 mmHg
  SAP % Change: 28%
  SAP systolic arterial pressure: 134 mmHg
Anesthetized dog; iv 5.0 mg/kg, Time 0
  DAP % Change: 0%
  DAP diastolic arterial pressure: 71 mmHg
  LVP % Change: 0%
  LVP left ventricular pressure: 144 mmHg
  MAP % Change: 0%
  MAP mean arterial pressure: 95 mmHg
  SAP % Change: 0%
  SAP systolic arterial pressure: 132 mmHg
Anesthetized dog; iv 5.0 mg/kg, Time 5
  DAP % Change: 0%
  DAP diastolic arterial pressure: 71 mmHg
  LVP % Change: 5%
  LVP left ventricular pressure: 151 mmHg
  MAP % Change: 4%
  MAP mean arterial pressure: 99 mmHg
  SAP % Change: 7%
  SAP systolic arterial pressure: 142 mmHg
Anesthetized dog; iv 5.0 mg/kg, Time 15
  DAP % Change: 39%
  DAP diastolic arterial pressure: 98 mmHg
  LVP % Change: 28%
  LVP left ventricular pressure: 184 mmHg
  MAP % Change: 37%
  MAP mean arterial pressure: 130 mmHg
  SAP % Change: 33%
  SAP systolic arterial pressure: 176 mmHg
Anesthetized dog; iv 5.0 mg/kg, Time 25
  DAP % Change: −3%
  DAP diastolic arterial pressure: 69 mmHg
  LVP % Change: 11%
  LVP left ventricular pressure: 160 mmHg
  MAP % Change: 1%
  MAP mean arterial pressure: 96 mmHg
  SAP % Change: −5%
  SAP systolic arterial pressure: 126 mmHg
Anesthetized dog; iv 5.0 mg/kg, Time 30
  DAP % Change: −1%
  DAP diastolic arterial pressure: 70 mmHg
  LVP % Change: 13%
  LVP left ventricular pressure: 163 mmHg
  MAP % Change: 4%
  MAP mean arterial pressure: 99 mmHg
  SAP % Change: 0%
  SAP systolic arterial pressure: 132 mmHg
